From ChEMBL document CHEMBL1201862, “PubChem BioAssay data set” (2004)
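Exposure lasted 48 hours, with cells grown in 96-well plates and compounds tested at five concentrations. The concentration for 50% growth inhibition is given as GI50.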 The source made the active and inactive calls. Rule as the data show it: active = GI50 up to about 1.1 µM and inactive = higher.

Experiments:
Assay in all cases: NCI tumour cell line growth inhibition, 48 h
BT-549 = tested on: BT-549
DU-145 = tested on: DU-145
HCC 2998 = tested on: HCC 2998
HCT-116 = tested on: HCT-116
HCT-15 = tested on: HCT-15
LOX IMVI = tested on: LOX IMVI
M14 = tested on: M14
MDA-MB-435 = tested on: MDA-MB-435
Malme-3M = tested on: Malme-3M
OVCAR-3 = tested on: OVCAR-3
OVCAR-4 = tested on: OVCAR-4
OVCAR-8 = tested on: OVCAR-8
PC-3 = tested on: PC-3
RPMI-8226 = tested on: RPMI-8226
RXF 393 = tested on: RXF 393
SF-268 = tested on: SF-268
SF-539 = tested on: SF-539
SK-MEL-5 = tested on: SK-MEL-5
SK-OV-3 = tested on: SK-OV-3
SR = tested on: SR

SMILES	GI50 (BT-549)	GI50 (DU-145)	GI50 (HCC 2998)	GI50 (HCT-116)	GI50 (HCT-15) [µM]	GI50 (LOX IMVI)	GI50 (M14)	GI50 (MDA-MB-435)	GI50 (Malme-3M)	GI50 (OVCAR-3)	GI50 (OVCAR-4)	GI50 (OVCAR-8)	GI50 (PC-3)	GI50 (RPMI-8226)	GI50 (RXF 393)	GI50 (SF-268)	GI50 (SF-539)	GI50 (SK-MEL-5)	GI50 (SK-OV-3)	GI50 (SR)
NCCCCc1cc(O)c2c(c1O)C(=O)c1ccccc1C2=O	22.2 µM (inactive)	12 µM (inactive)	12.6 µM (inactive)	4.75 µM (inactive)	9.25	7.59 µM (inactive)	16.5 µM (inactive)	22.6 µM (inactive)	14.7 µM (inactive)	6.75 µM (inactive)	15.4 µM (inactive)	5.09 µM (inactive)	10.4 µM (inactive)	7.13 µM (inactive)	12.9 µM (inactive)	13.8 µM (inactive)	6.75 µM (inactive)	12.4 µM (inactive)	14.9 µM (inactive)	3.18 µM (inactive)
NC(=O)CC1(O)C=CC(=O)C=C1	> 100 µM (inactive)	> 100 µM (inactive)	> 100 µM (inactive)	> 100 µM (inactive)	> 100	> 100 µM (inactive)	> 100 µM (inactive)	> 100 µM (inactive)	> 100 µM (inactive)	> 100 µM (inactive)	> 100 µM (inactive)	> 100 µM (inactive)	> 100 µM (inactive)	> 100 µM (inactive)	> 100 µM (inactive)		> 100 µM (inactive)	> 100 µM (inactive)	> 100 µM (inactive)	88.7 µM (inactive)
O=C1CN2C(c3ccccc3)=NN(c3ccc([N+](=O)[O-])cc3)C2(c2ccccc2)c2cc(Cl)ccc2N1CC1CC1 (stereo not drawn)	> 100 µM (inactive)	> 100 µM (inactive)	> 100 µM (inactive)	> 100 µM (inactive)	> 100	> 100 µM (inactive)	> 100 µM (inactive)	> 100 µM (inactive)	> 100 µM (inactive)	> 100 µM (inactive)	> 100 µM (inactive)	> 100 µM (inactive)	7.6 µM (inactive)	29 µM (inactive)	> 100 µM (inactive)	> 100 µM (inactive)	> 100 µM (inactive)	> 100 µM (inactive)	> 100 µM (inactive)	> 100 µM (inactive)
COc1cc(C2c3cc4c(cc3OC(O)C2C)OCO4)cc(OC)c1OC (stereo not drawn)	1.14 µM (inactive)	0.414 µM (active)	0.61 µM (active)	0.349 µM (active)	0.403	0.69 µM (active)	0.376 µM (active)	0.0377 µM (active)	0.431 µM (active)	0.243 µM (active)	2.8 µM (inactive)	0.245 µM (active)	0.228 µM (active)	0.264 µM (active)	0.244 µM (active)	1.51 µM (inactive)	0.294 µM (active)	0.272 µM (active)	0.414 µM (active)	0.2 µM (active)
O=C(O)[C@H]1NC[C@@H]2ON=C(Br)[C@@H]21	> 100 µM (inactive)	> 100 µM (inactive)	> 100 µM (inactive)	> 100 µM (inactive)	> 100	> 100 µM (inactive)	> 100 µM (inactive)	> 100 µM (inactive)	> 100 µM (inactive)	> 100 µM (inactive)	> 100 µM (inactive)	> 100 µM (inactive)	> 100 µM (inactive)	> 100 µM (inactive)	> 100 µM (inactive)	> 100 µM (inactive)	> 100 µM (inactive)	> 100 µM (inactive)	> 100 µM (inactive)	> 100 µM (inactive)
CSC[C@H](NC(=O)COc1cccc2cnccc12)C(=O)NC(Cc1ccccc1)C(O)C(=O)N1CSC[C@H]1C(=O)NC(C)(C)C (stereo partly drawn)	> 100 µM (inactive)	42.8 µM (inactive)	> 100 µM (inactive)	23 µM (inactive)	> 100	31.8 µM (inactive)	78.2 µM (inactive)	87.5 µM (inactive)	> 100 µM (inactive)	69.8 µM (inactive)	57.5 µM (inactive)	78.3 µM (inactive)	24 µM (inactive)	23.6 µM (inactive)	29.2 µM (inactive)	16.9 µM (inactive)	11 µM (inactive)	> 10 µM (inactive)	> 100 µM (inactive)	36.8 µM (inactive)
Cc1cc(O)c2c(c1)C[C@@H](O)C1=C2C(=O)c2c(O)ccc(OC3CC(O)C(OC4CC(OC5CCC(OC6CC(O)C(OC7CC(OC8CCC(O)C(C)O8)C(O)C(C)O7)C(C)O6)C(C)O5)C(O)C(C)O4)C(C)O3)c2C1=O (stereo partly drawn)	0.327 µM (active)	0.345 µM (active)	0.105 µM (active)	0.0492 µM (active)	0.0684	0.0426 µM (active)	0.0789 µM (active)	0.135 µM (active)	0.0516 µM (active)	0.0641 µM (active)	0.0179 µM (active)	0.0224 µM (active)	0.223 µM (active)	0.0265 µM (active)	0.0687 µM (active)	0.0243 µM (active)	0.0716 µM (active)	0.0879 µM (active)		0.0715 µM (active)
